Laboratory results reported in patent US20050137252A1, “Production of dihydronepetalactone” (priority 2003, published 2005).

Test system: Aedes aegypti mosquitoes
Experiment: in vitro Gupta box landing assay (insect repellency)
Conditions: 1% in IPA, 25 μl on Baudruche membrane over bovine blood at 37° C.; about 250 4-day-old female mosquitoes; probing recorded at 2 minute intervals over 20 minutes; mean of three replicates; compared with prior-art DHN materials
Method: The product of Example 1 is evaluated for insect repellency in a comparison test with DHN stereoisomers prepared according to prior-art methods, and against the major commercial insect repellent composition, DEET (N,N-diethyl-m-toluamide). As a control, neat iso-propanol (IPA) is employed as well. Repellency is determined against Aedes aegypti mosqutioes in the in vitro Gupta box landing assay. In this method a chamber contains 5 wells, each covered by a Baudruche (animal intestine) membrane. Each well is filled with bovine blood, containing sodium citrate (to prevent clotting) and ATP (72 mg ATP disodium salt per 26 ml of blood), and heated to 37° C. A volume of 25 μl of isopropyl alcohol (IPA) containing one test specimen or control is applied to each membrane. The concentrations are all 1% in IPA except where otherwise indicated. Controls are either neat IPA, an untreated membrane surface, or a membrane surface treated with a 1% solution of DEET. After 5 min, approximately 250 4-day-old female Aedes aegypti mosquitoes are introduced into the chamber. The number of mosquitoes probing the membranes for each treatment is recorded at 2 minute intervals over 20 minutes. Each datum represents the mean of three replicate experiments.

With `CC1COC(=O)C2C(C)CCC12` (single isomer, unassigned) [DHN Structure F] the “repellent efficacy (mean number of landings over elapsed time, FIG. 3)” value was “compared well in repellent efficacy”.
